Experimental data published in ChEMBL document CHEMBL4622979, “Non-rigid Diarylmethyl Analogs of Baloxavir as Cap-Dependent Endonuclease Inhibitors of Influenza Viruses” (J Med Chem, 2020).
Active and inactive are the calls of the source. No cut-off for these calls is given here.

Key:
[1] = Oral bioavailability in CD1 mouse assessed as (12aR)-12-[(R)-(3,4-Difluorophenyl)(phenyl)methyl]-7-hydroxy3,4,12,12a-tetrahydro-1H-[1,4]oxazino[3,4-c]pyrido[2,1-f ][1,2,4]-triazine-6,8-dione level at 15 mg/kg administered as single dose by LC-MS/MS analysis; type: ADME, organism-based; settings: in vivo
[2] = Cmax in CD1 mouse plasma assessed as (12aR)-12-[(R)-(3,4-Difluorophenyl)(phenyl)methyl]-7-hydroxy3,4,12,12a-tetrahydro-1H-[1,4]oxazino[3,4-c]pyrido[2,1-f ][1,2,4]-triazine-6,8-dione level at 15 mg/kg, po administered as single dose by LC-MS/MS analysis; type: ADME, organism-based; design: dose 15 mg/kg, route oral; settings: in vivo
[3] = AUClast in CD1 mouse plasma assessed as (12aR)-12-[(R)-(3,4-Difluorophenyl)(phenyl)methyl]-7-hydroxy3,4,12,12a-tetrahydro-1H-[1,4]oxazino[3,4-c]pyrido[2,1-f ][1,2,4]-triazine-6,8-dione level at 15 mg/kg, po administered as single dose by LC-MS/MS analysis; type: ADME, organism-based; design: dose 15 mg/kg, route oral, time 0 - last; settings: in vivo
[4] = Cmax in CD1 mouse lung assessed as (12aR)-12-[(R)-(3,4-Difluorophenyl)(phenyl)methyl]-7-hydroxy3,4,12,12a-tetrahydro-1H-[1,4]oxazino[3,4-c]pyrido[2,1-f ][1,2,4]-triazine-6,8-dione level at 15 mg/kg, po administered as single dose by LC-MS/MS analysis; type: ADME, organism-based; design: dose 15 mg/kg, route oral; settings: in vivo
[5] = AUClast in CD1 mouse lung assessed as (12aR)-12-[(R)-(3,4-Difluorophenyl)(phenyl)methyl]-7-hydroxy3,4,12,12a-tetrahydro-1H-[1,4]oxazino[3,4-c]pyrido[2,1-f ][1,2,4]-triazine-6,8-dione level at 15 mg/kg, po administered as single dose by LC-MS/MS analysis; type: ADME, organism-based; settings: in vivo
[6] = Ratio of Cmax in CD1 mouse lung to plasma assessed as (12aR)-12-[(R)-(3,4-Difluorophenyl)(phenyl)methyl]-7-hydroxy3,4,12,12a-tetrahydro-1H-[1,4]oxazino[3,4-c]pyrido[2,1-f ][1,2,4]-triazine-6,8-dione level at 15 mg/kg, po administered as single dose by LC-MS/MS analysis; type: ADME, organism-based; settings: other tissue
[7] = Ratio of AUClast in CD1 mouse lung to plasma assessed as (12aR)-12-[(R)-(3,4-Difluorophenyl)(phenyl)methyl]-7-hydroxy3,4,12,12a-tetrahydro-1H-[1,4]oxazino[3,4-c]pyrido[2,1-f ][1,2,4]-triazine-6,8-dione level at 15 mg/kg, po administered as single dose by LC-MS/MS analysis; type: ADME, organism-based; settings: other tissue
HEK-293T [8] = assay: (§1) Inhibition of CEN polymerase activity in Influenza A/California/04/2009 (H1N1)pdm09 NP/PA/PB1/PB2 complex transfected in HEK293T cells co-expressing beta-galactosidase at 100 nM preincubated for 3 hrs followed by viral gene transfection and measured after 24 hrs by ONPG substrate based luciferase reporter gene mini-replicon assay relative to control; type: cell-based; settings: Influenza A virus (A/California/04/2009(H1N1))
HEK-293T [9] = assay: as §1, with “25” for “100”; type: cell-based; settings: Influenza A virus (A/California/04/2009(H1N1))
Influenza A virus [10] = assay: Antiviral activity against Influenza A/California/04/2009 (H1N1)pdm09 infected in MDCK cells assessed as protection against virus-induced cell death by CellTiter-Glo assay; type: functional, organism-based; settings: A/California/04/2009(H1N1) pdm09, MDCK
[11] = Cytotoxicity against MDCK cells assessed as reduction in cell viability by CellTiter-Glo assay; type: cell-based, Canis lupus familiaris; settings: dog
[12] = Selectivity index, ratio of CC50 for MDCK cells to EC50 for Influenza A/California/04/2009 (H1N1)pdm09 virus infected in MDCK cells; type: toxicity, cell-based; settings: dog, read-out: Ratio CC50/EC50
Influenza A virus [13] = assay: Antiviral activity against Influenza A virus (A/Denmark/524/2009(H1N1)) pdm09 infected in MDCK cells assessed as protection against virus-induced cell death measured 72 to 96 hrs post-infection by CellTiter-Glo assay; type: functional, organism-based; settings: A/Denmark/524/2009(H1N1) pdm09, MDCK
Influenza A virus H3N2 = assay: Antiviral activity against Influenza A virus (A/Fukui/20/2004 (H3N2)) infected in MDCK cells assessed as protection against virus-induced cell death measured 72 to 96 hrs post-infection by CellTiter-Glo assay; type: functional, organism-based; settings: A/Fukui/20/2004, MDCK
Influenza B virus [14] = assay: Antiviral activity against Victoria lineage of Influenza B virus (B/Brisbane/60/2008) infected in MDCK cells assessed as protection against virus-induced cell death measured 72 to 96 hrs post-infection by CellTiter-Glo assay; type: functional, organism-based; settings: B/Brisbane/60/2008, MDCK
Influenza B virus [15] = assay: Antiviral activity against Yamagata lineage of Influenza B virus (B/Florida/4/2006) infected in MDCK cells assessed as protection against virus-induced cell death measured 72 to 96 hrs post-infection by CellTiter-Glo assay; type: functional, organism-based; settings: B/Florida/4/2006, MDCK
[16] = Cytotoxicity against human MRC5 cells assessed as reduction in cell viability by ATP bioluminescence assay; type: cell-based
[17] = Cytotoxicity against human PBMC cells assessed as reduction in cell viability by ATP bioluminescence assay; type: cell-based
[18] = Cytotoxicity against MDCK cells assessed as reduction in cell viability by ATP bioluminescence assay; type: cell-based, Canis lupus familiaris; settings: dog
[19] = Cytotoxicity against human HepG2 cells assessed as reduction in cell viability measured after 24 hrs in presence of glucose by MTT assay; type: cell-based
[20] = Cytotoxicity against human HepG2 cells assessed as reduction in cell viability measured after 24 hrs in presence of galactose by MTT assay; type: cell-based
[21] = Selectivity ratio of CC50 for human HepG2 cells assessed as reduction in cell viability measured after 24 hrs in presence of glucose to CC50 for human HepG2 cells assessed as reduction in cell viability measured after 24 hrs in presence of galactose; type: cell-based
[22] = target: dopamine transporter (sodium-dependent dopamine transporter) (Homo sapiens, UniProt Q01959); assay: Binding affinity to human dopamine transporter at 10 uM relative to control; type: ADME; settings: read-out: Activity
[23] = Oral bioavailability in CD1 mouse at 10 mg/kg administered as single dose by LC-MS/MS analysis; type: ADME, organism-based; settings: in vivo
[24] = Cmax in CD1 mouse plasma at 10 mg/kg, po administered as single dose by LC-MS/MS analysis; type: ADME, organism-based; design: dose 10 mg/kg, route oral
[25] = AUClast in CD1 mouse plasma at 10 mg/kg, po administered as single dose by LC-MS/MS analysis; type: ADME, organism-based; design: dose 10 mg/kg, route oral, time 0 - last
[26] = AUClast in CD1 mouse plasma at 2 mg/kg, iv administered as single dose by LC-MS/MS analysis; type: ADME, organism-based; design: dose 2 mg/kg, route intravenous, time 0 - last
[27] = Cmax in CD1 mouse lung at 10 mg/kg, po administered as single dose by LC-MS/MS analysis; type: ADME, organism-based; design: dose 10 mg/kg, route oral
[28] = AUClast in CD1 mouse lung at 10 mg/kg, po administered as single dose by LC-MS/MS analysis; type: ADME, organism-based; settings: in vivo
[29] = Ratio of Cmax in CD1 mouse lung to plasma at 10 mg/kg, po administered as single dose by LC-MS/MS analysis; type: ADME, organism-based; settings: lung and plasma
[30] = Ratio of AUClast in CD1 mouse lung to plasma at 10 mg/kg, po administered as single dose by LC-MS/MS analysis; type: ADME, organism-based; settings: lung and plasma, read-out: Ratio AUC
[31] = Stability in simulated gastric fluid assessed as parent compound remaining at 1 uM measured after 4 hrs at pH 1.2 by LC-MS/MS analysis; type: physicochemical; settings: read-out: Stability
[32] = Stability in simulated intestinal fluid assessed as parent compound remaining at 1 uM measured after 4 hrs at pH 1.2 by LC-MS/MS analysis; type: physicochemical; settings: read-out: Stability
[33] = Stability in human plasma assessed as parent compound remaining at 1 uM measured after 4 hrs by LC-MS/MS analysis; type: ADME, cell-free; settings: read-out: Stability
[34] = Stability in human liver S9 fraction assessed as parent compound remaining at 1 uM measured after 4 hrs by LC-MS/MS analysis; type: ADME, subcellular; settings: read-out: Stability
[35] = Stability in rat plasma assessed as parent compound remaining at 1 uM measured after 4 hrs by LC-MS/MS analysis; type: ADME, cell-free; settings: read-out: Stability
[36] = Stability in rat liver S9 fraction assessed as parent compound remaining at 1 uM measured after 4 hrs by LC-MS/MS analysis; type: ADME, subcellular; settings: read-out: Stability
[37] = Stability in mouse plasma assessed as parent compound remaining at 1 uM measured after 4 hrs by LC-MS/MS analysis; type: ADME, cell-free; settings: read-out: Stability
[38] = Stability in mouse liver S9 fraction assessed as parent compound remaining at 1 uM measured after 4 hrs by LC-MS/MS analysis; type: ADME, subcellular; settings: read-out: Stability
[39] = Protein binding in human plasma at 1 uM measured after 4 hrs by LC-MS/MS analysis; type: ADME, cell-free; settings: read-out: PPB (converted)
[40] = Protein binding in rat plasma at 1 uM measured after 4 hrs by LC-MS/MS analysis; type: ADME, cell-free; settings: read-out: PPB (converted)
[41] = Protein binding in mouse plasma at 1 uM measured after 4 hrs by LC-MS/MS analysis; type: ADME, cell-free; settings: read-out: PPB (converted)
Influenza A virus [42] = assay: (§2) Antiviral activity against Influenza A/California/04/2009 (H1N1)pdm09 infected in specific pathogen-free BALB/c mouse assessed as protection against virus-induced mouse death at 50 mg/kg, po administered via gavage immediately after infection and at 12 hrs post-infection measured on 16 days post-infection relative to control; type: functional
Influenza A virus [43] = assay: as §2, with “20” for “50”; type: functional
[44] = Toxicity in Influenza A/California/04/2009 (H1N1)pdm09 infected specific pathogen-free BALB/c mouse assessed as reduction in body weight at 20 to 50 mg/kg, po administered via gavage immediately after infection and at 12 hrs post-infection measured on 10 days post-infection; type: organism-based; settings: in vivo, 240 h
[45] = Toxicity in Influenza A/California/04/2009 (H1N1)pdm09 infected specific pathogen-free BALB/c mouse assessed as effect on body weight at 20 to 50 mg/kg, po administered via gavage immediately after infection and at 12 hrs post-infection measured after 10 days post-infection; type: organism-based; settings: in vivo, 240 h
Influenza A virus [46] = assay: Antiviral activity against Influenza A/California/04/2009 (H1N1)pdm09 infected in specific pathogen-free BALB/c mouse assessed as reduction in virus titre in lung at 20 mg/kg, po administered via gavage immediately after infection and at 12 hrs post-infection measured 24 hrs post-infection; type: functional, organism-based

dopamine transporter (sodium-dependent dopamine transporter), sequence (Q01959 whole entry): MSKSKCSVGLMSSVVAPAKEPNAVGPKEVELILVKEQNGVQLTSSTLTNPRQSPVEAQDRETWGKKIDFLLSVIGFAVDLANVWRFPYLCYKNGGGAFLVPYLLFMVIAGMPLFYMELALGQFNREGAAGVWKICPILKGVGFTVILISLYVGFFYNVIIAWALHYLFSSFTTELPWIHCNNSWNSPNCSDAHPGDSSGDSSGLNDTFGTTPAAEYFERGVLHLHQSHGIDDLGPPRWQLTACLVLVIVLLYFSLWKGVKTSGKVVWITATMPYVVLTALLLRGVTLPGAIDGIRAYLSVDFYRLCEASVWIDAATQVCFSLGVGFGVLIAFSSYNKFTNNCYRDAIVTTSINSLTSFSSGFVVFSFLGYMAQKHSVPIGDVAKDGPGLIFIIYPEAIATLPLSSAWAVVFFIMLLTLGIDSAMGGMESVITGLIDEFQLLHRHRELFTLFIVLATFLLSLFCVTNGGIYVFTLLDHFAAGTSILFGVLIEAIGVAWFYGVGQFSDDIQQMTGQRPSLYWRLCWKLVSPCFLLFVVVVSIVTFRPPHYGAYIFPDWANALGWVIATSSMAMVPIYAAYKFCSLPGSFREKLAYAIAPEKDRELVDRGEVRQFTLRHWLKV

COC(=O)OCOc1c2n(ccc1=O)N([C@H](c1ccccc1)c1ccc(F)c(F)c1)[C@@H]1COCCN1C2=O
F [1]: 56.9%
Cmax [2]: 2090 ng/mL
AUClast [3]: 9448 ng·h/mL
Cmax [4]: 4464 ng/g
AUClast [5]: 30130 ng·h/g
Ratio [6]: 2.1
Ratio AUC [7]: 3.2

O=C1c2c(O)c(=O)ccn2N(C(c2ccccc2)c2ccccc2)[C@@H]2COCCN12
inhibition (HEK-293T [8]): 70%
inhibition (HEK-293T [9]): 17.8%
EC50 (Influenza A virus [10]): 0.0185 µM
CC50 [11]: 12.1 µM
selectivity ratio [12]: 654
EC50 (Influenza A virus [13]): 0.0036 to 0.0125 µM
EC50 (Influenza A virus H3N2): 0.0036 to 0.0125 µM
EC50 (Influenza B virus [14]): 5.1 to 28.3 µM
EC50 (Influenza B virus [15]): 5.1 to 28.3 µM
CC50 [16]: > 100 µM
CC50 [17]: 21 µM
CC50 [18]: 5.8 µM
CC50 at 24 h [19]: 20 µM
CC50 at 24 h [20]: 18 µM
selectivity ratio at 24 h [21]: 1.1
activity at 10 µM [22]: 71.7%
bioavailability [23]: 38.2%
Cmax [24]: 1660 ng/mL
AUC(0-t) [25]: 2420 ng·h/mL
AUC(0-t) [26]: 844 ng·h/mL
Cmax [27]: 3720 ng/g
AUClast [28]: 7477 ng·h/g
Kp [29]: 2.2
Kp [30]: 3.1
remaining at 4 h, 1 µM [31]: 96%
remaining at 4 h, 1 µM [32]: 89.3%
remaining at 4 h, 1 µM [33]: 63.2%
remaining at 4 h, 1 µM [34]: 82.8%
remaining at 4 h, 1 µM [35]: 71.4%
remaining at 4 h, 1 µM [36]: 79%
remaining at 4 h, 1 µM [37]: 70.1%
remaining at 4 h, 1 µM [38]: 97.1%
fraction unbound at 4 h, 1 µM [39]: 0.033
fraction unbound at 4 h, 1 µM [40]: 0.193
fraction unbound at 4 h, 1 µM [41]: 0.138
Activity (Influenza A virus [42]): 60%
Activity (Influenza A virus [43]): 80%
Activity [44]: Toxic
Activity [45]: Non-Toxic
Activity (Influenza A virus [46]): Active
